# Legend:
# Male Wistar rats [1] = test: Immunohistochemistry of rat brain sections, grading scale of staining size and intensity; type: in vivo; design: key to NKκB(p65) immunostaining signal / COX-2 immunostaining signal / GFAP immunostaining signal / OX-6 immunostaining signal / APP immunostaining signal / Tau-2 immunostaining signal / TNFα immunostaining signal / Cas-3 immunostaining signal: n.s.: no positive staining; +: moderate immunostaining signal; ++: strong immunostaining signal; +++: strongest immunostaining signal
# Protocol: (§3) All rats were anesthetized using 40 mg/kg of pentobarbital (Somnotol; MTC Pharmaceuticals, Cambridge, Ontario) intraperitoneally. Body temperature was maintained at 37° C. Aβ(25-35) (50 nmol in 10 μL of saline) was injected bilaterally into the lateral ventricles. Aβ(25-35) was prepared according to established methods (Sigurdsson, et al. (1997) supra). Aβ(25-35) (50 nmol in 10 μL of saline at a rate of 1 μL/minute) was injected bilaterally into the lateral ventricles via a stainless-steel cannula (23-gauge; anterior/posterior −0.8, medial/lateral ±1.4, and dorsal/ventral −4.0 below dura). Two endothelin injections (6 pmol in 3 μL of saline), 1 mm apart, were made into the right striatum (Sigurdsson, et al. (1997) supra). Sham procedures involved all the surgical steps without injections of Aβ(25-35) or endothelin. After wound suture, all rats received 40 mg/kg of buprenorphine intramuscularly and were allowed to recover from surgery for 7 days.
# (§4) Twenty-one days after surgery, all animals were euthanized via pentobarbital overdose and perfused transaortically first with saline followed by 4% formaldehyde (pH 7.4). The brains were removed and cryoprotected in 30% sucrose for 36 hours at 4° C. Coronal sections (30 pm) were cut using a cryostat.
# (§5) Free-floating sections from rat brains (n=5 for each group) were treated with 0.03% hydrogen peroxide and blocked with 3 mL of horse or rabbit serum (VECTASTAIN® Elite, Vector Laboratories, Burlingame, Calif.). The following primary antibodies were diluted in filtered phosphate-buffered saline: APPa4 mouse monoclonal (Chemicon International Inc, Temecula, Calif.; 1:1000), GFAP mouse monoclonal (Sigma-Aldrich, St Louis, Mo.; 1:1000), OX-6 mouse monoclonal (Serotec, Inc., Raleigh, N.C.; 1:1000), Tau-2 mouse monoclonal (Sigma-Aldrich, St Louis, Mo.; 1:10000), NFκB(p65) goat polyclonal (Santa Cruz Biotechnologies, Santa Cruz, Calif.; 1:1000), IL-1β goat polyclonal (Santa Cruz Biotechnologies, Santa Cruz, Calif.; 1:1000), and TNF-α-M18 goat polyclonal (Santa Cruz Biotechnologies, Santa Cruz, Calif.; 1:1000). APP-, Tau-2-, GFAP-, and OX-6-stained sections were incubated with 3 mL of horse biotinylated anti-mouse secondary antibody and horse serum. NFκB(p65), IL-1β, and TNF-α-stained sections were incubated with 3 mL of biotinylated rabbit anti-goat secondary antibody and rabbit serum. Sections were then incubated in 3 mL of avidin-biotin complex followed by 0.05% diaminobenzidine. Sections were washed, air-dried, cleared in xylene, and cover-slipped. Brains to be compared were processed at the same time using the same solutions to reduce variability in immunostaining caused by separate processing.
# (§6) Digital photographs were taken using a light microscope (Leitz Diaplan). An investigator was blinded to the identification of the rat sections while analysis was being performed. All immunohistochemical data that were compared was processed at the same time to reduce any variation caused by differences of intensity. A grading scale was based on both observable size and intensity of staining (n=5 for each group). Also, relative optical density measurements and numbers of stained cells or accumulations were measured in entire brain areas for quantitative analysis and statistically analyzed with ANOVA and Tukey post hoc test with a significance level of P<0.05.
# Male Wistar rats [2] = test: Quantitative immunohistochemistry: relative optical density and numbers of stained cells or accumulations; type: in vivo, rat; conditions: for APP Accumulation / GFAP Intensity / OX6 Intensity: vehicle (not in brackets), mean ± SEM, n = 4
# Protocol: as §3, §4, §5, §6
# Male Wistar rats [3] = test: Montoya staircase test; type: in vivo, rat; conditions: mean±SEM
# Protocol: (§1) Male Wistar rats (250 to 300 grams; Charles River, Montreal, Quebec) were divided into 4 groups: intracerebroventricular injections of Aβ(25-35) (BACHEM, Torrance, Calif.); endothelin injections into the right striatum; both Aβ(25-35) and striatal endothelin injections; and sham procedures. The Aβ(25-35) fragment was used to reduce the possibility of rapid coagulation and to allow diffusion of the peptide into the brain.
# (§2) All rats were anesthetized using 40 mg/kg of pentobarbital (Somnotol; MTC Pharmaceuticals, Cambridge, Ontario) intraperitoneally. Body temperature was maintained at 37° C. Aβ(25-35) (50 nmol in 10 μL of saline) was injected bilaterally into the lateral ventricles. Aβ(25-35) was prepared according to established methods (Sigurdsson, et al. (1997) supra). Aβ(25-35) (50 nmol in 10 μL of saline at a rate of 1 μL/minute) was injected bilaterally into the lateral ventricles via a stainless-steel cannula (23-gauge; anterior/posterior −0.8, medial/lateral ±1.4, and dorsal/ventral −4.0 below dura). Two endothelin injections (6 pmol in 3 μL of saline), 1 mm apart, were made into the right striatum (Sigurdsson, et al. (1997) supra). Sham procedures involved all the surgical steps without injections of Aβ(25-35) or endothelin. After wound suture, all rats received […] of buprenorphine intramuscularly and were allowed to recover from surgery for 7 days.
# For training (n=10 for each group), rats were placed into the Montoya staircase apparatus (Montoya, et al. (1991) supra) at the same time every day for 8 days (days −8 through −1) and were allowed to perform the test for 20 minutes. Rats were food-deprived for 1 day (day −9) before testing, as well as on day −8. On days −7 though −1, rats were fed 10 grams of their normal chow so that they maintained their body weight at ˜85%. Three NOYES LAB ANIMAL PRECISION FOOD PELLETS™ (Research Diets, Inc., New Brunswick, N.J.) were placed in each of the 14 wells (7 on each side). Pellets eaten were recorded from each well. Re-testing trials, which were performed 7 days after the surgical procedures (day 0), were performed for 8 days in the same way as the training trials (days 8 through 15).
# Digital photographs were taken using a light microscope (Leitz Diaplan). An investigator was blinded to the identification of the rat sections while analysis was being performed. […] Also, relative optical density measurements and numbers of stained cells or accumulations were measured in entire brain areas for quantitative analysis and statistically analyzed with ANOVA and Tukey post hoc test with a significance level of P<0.05. […] The staircase data are expressed as the mean±SEM. […] Data are expressed as mean±SEM. […]
# Male Wistar rats [4] = test: Congo Red histochemistry of rat brain sections; type: in vivo; conditions: Aβ: lesions in fornix, anterior hippocampus, CA1 hippocampus; endothelin: infarct
# Protocol: as §1
# as §2, with “days. […]” for “days.”
smiles,measurement,setting,value
CC[C@H](C)[C@H](NC(=O)[C@H](CC(=O)O)NC(=O)[C@H](CC(C)C)NC(=O)[C@H](Cc1c[nH]cn1)NC(=O)[C@@H]1CSSC[C@H](N)C(=O)N[C@@H](CO)C(=O)N[C@H]2CSSC[C@H](NC(=O)[C@H](CCC(=O)O)NC(=O)[C@H](CCCCN)NC(=O)[C@H](CC(=O)O)NC(=O)[C@H](CCSC)NC(=O)[C@H](CC(C)C)NC(=O)[C@H](CO)NC(=O)[C@H](CO)NC2=O)C(=O)N[C@@H](C(C)C)C(=O)N[C@@H](Cc2ccc(O)cc2)C(=O)N[C@@H](Cc2ccccc2)C(=O)N1)C(=O)N[C@H](C(=O)N[C@@H](Cc1c[nH]c2ccccc12)C(=O)O)[C@@H](C)CC [Endothelin],APP immunostaining signal,Male Wistar rats [1]; Corpus Callosum,n.s.
same,COX-2 immunostaining signal,Male Wistar rats [1]; Corpus Callosum,n.s.
same,GFAP immunostaining signal,Male Wistar rats [1]; Corpus Callosum,+
same,NKκB(p65) immunostaining signal,Male Wistar rats [1]; Corpus Callosum,n.s.
same,OX-6 immunostaining signal,Male Wistar rats [1]; Corpus Callosum,n.s.
same,TNFα immunostaining signal,Male Wistar rats [1]; Corpus Callosum,n.s.
same,Tau-2 immunostaining signal,Male Wistar rats [1]; Corpus Callosum,n.s.
same,APP immunostaining signal,Male Wistar rats [1]; Cortex,n.s.
same,COX-2 immunostaining signal,Male Wistar rats [1]; Cortex,n.s.
same,GFAP immunostaining signal,Male Wistar rats [1]; Cortex,+
same,NKκB(p65) immunostaining signal,Male Wistar rats [1]; Cortex,n.s.
same,OX-6 immunostaining signal,Male Wistar rats [1]; Cortex,n.s.
same,TNFα immunostaining signal,Male Wistar rats [1]; Cortex,n.s.
same,Tau-2 immunostaining signal,Male Wistar rats [1]; Cortex,n.s.
same,APP immunostaining signal,Male Wistar rats [1]; Hippocampus,n.s.
same,COX-2 immunostaining signal,Male Wistar rats [1]; Hippocampus,n.s.
same,GFAP immunostaining signal,Male Wistar rats [1]; Hippocampus,+
same,NKκB(p65) immunostaining signal,Male Wistar rats [1]; Hippocampus,n.s.
same,OX-6 immunostaining signal,Male Wistar rats [1]; Hippocampus,n.s.
same,Tau-2 immunostaining signal,Male Wistar rats [1]; Hippocampus,n.s.
same,APP immunostaining signal,Male Wistar rats [1]; Hypothalamus,n.s.
same,NKκB(p65) immunostaining signal,Male Wistar rats [1]; Hypothalamus,n.s.
same,TNFα immunostaining signal,Male Wistar rats [1]; Hypothalamus,n.s.
same,APP immunostaining signal,Male Wistar rats [1]; Striatum (right),+
same,COX-2 immunostaining signal,Male Wistar rats [1]; Striatum (right),+
same,Cas-3 immunostaining signal,Male Wistar rats [1]; Striatum (right),+
same,GFAP immunostaining signal,Male Wistar rats [1]; Striatum (right),++
same,NKκB(p65) immunostaining signal,Male Wistar rats [1]; Striatum (right),+
same,OX-6 immunostaining signal,Male Wistar rats [1]; Striatum (right),++
same,TNFα immunostaining signal,Male Wistar rats [1]; Striatum (right),+
same,OX-6 immunostaining signal,Male Wistar rats [1]; Thalamus (right),+
same,TNFα immunostaining signal,Male Wistar rats [1]; Thalamus (right),+
same,Tau-2 immunostaining,Male Wistar rats [1]; region of ischemic damage (right striatum),Increases
same,IL-1β immunostaining,"Male Wistar rats [1]; region of the infarct, punctate appearance",Increases
same,average numbers of OX-6-stained microglia,Male Wistar rats [2]; CA1 of the hippocampus,4.8±0.9
same,Average intensity measurements for GFAP,Male Wistar rats [2]; Hippocampus,152.9±11.0
same,APP Accumulation,Male Wistar rats [2]; Left Cortex,7.4 ± 1.4
same,GFAP Intensity,Male Wistar rats [2]; Left Hippocampus,152.1 ± 4.1
same,OX6 Intensity,Male Wistar rats [2]; Left Hippocampus,104.2 ± 3.5
same,APP Accumulation,Male Wistar rats [2]; Right Cortex,13.8 ± 1.9
same,GFAP Intensity,Male Wistar rats [2]; Right Hippocampus,166.0 ± 3.8
same,OX6 Intensity,Male Wistar rats [2]; Right Hippocampus,116.2 ± 2.9
same,"Staircase test performance, contralateral paw",Male Wistar rats [3]; day 8 (first day of re-testing),66±15 % of pretreatment
same,"Staircase test performance, ipsilateral paw",Male Wistar rats [3]; during the post-treatment phase,143±18 % of pretreatment
same,Congo Red staining,Male Wistar rats [4],stained positively for Congo Red

# Reference: patent US20060282906A1, “Non-transgenic rodent model of Alzheimer's disease” (priority 2005, published 2006)
